Holding throughout (format): in vivo
Test [1] has as its system Digitaria sanguinalis (DIGSA). Briefly: Test Example 1, post-emergence herbicidal activity. The following applies: Rate 500 g/ha; evaluated 15 days later; 100=total damage to plant, 0=no damage to plant. Here is the method:
(§1) Monocotyledonous and dicotyledonous test plants were sown in standard soil in pots. After cultivation for one day (pre-emergence) or after 10 days cultivation (post-emergence) under controlled conditions in a glasshouse, the plants were sprayed with an aqueous spray solution derived from the formulation of the technical active ingredient in 0.6 ml acetone and 45 ml formulation solution containing 10.6% Emulsogen EL (Registry number 61791-12-6), 42.2% N-methylpyrrolidone, 42.2% dipropylene glycol monomethyl ether (Registry number 34590-94-8) and 0.2% X-77 (Registry number 11097-66-8). The test plants were then grown in a greenhouse under optimum conditions until, 15 days later for post-emergence and 20 days for pre-emergence, the test was evaluated (100=total damage to plant; 0=no damage to plant). Alopecurus myosuroides (ALOMY), Avena fatua (AVEFA), Lolium perenne (LOLPE), Setaria faberi (SETFA), Digitaria sanguinalis (DIGSA), Echinochloa crus-galli (ECHCG)

For test [2], the system named is Echinochloa crus-galli (ECHCG). Nature of the test: Test Example 1, post-emergence herbicidal activity. The note with it: Rate 500 g/ha; evaluated 15 days later; 100=total damage to plant, 0=no damage to plant. Here is the method:
as §1

The test system of test [3] is Lolium perenne (LOLPE). Briefly: Test Example 1, post-emergence herbicidal activity. The following applies: Rate 500 g/ha; evaluated 15 days later; 100=total damage to plant, 0=no damage to plant. Here is the method: as §1
The test system of test [4] is Avena fatua (AVEFA). Briefly: Test Example 1, post-emergence herbicidal activity. The note with it: Rate 500 g/ha; evaluated 15 days later; 100=total damage to plant, 0=no damage to plant. The protocol:
as §1

Test [5] concerns Setaria faberi (SETFA). Briefly: Test Example 1, post-emergence herbicidal activity. The note with it: Rate 500 g/ha; evaluated 15 days later; 100=total damage to plant, 0=no damage to plant. The protocol:
as §1

For test [6], the system named is Alopecurus myosuroides (ALOMY). Briefly: Test Example 1, post-emergence herbicidal activity. The note with it: Rate 500 g/ha; evaluated 15 days later; 100=total damage to plant, 0=no damage to plant. The protocol:
as §1

Test [7] deals with Digitaria sanguinalis (DIGSA). Nature of the test: Test Example 1, pre-emergence herbicidal activity. The note with it: Rate 500 g/ha; evaluated 20 days later; 100=total damage to plant, 0=no damage to plant. The protocol:
as §1

Test [8] has as its system Echinochloa crus-galli (ECHCG). Nature of the test: Test Example 1, pre-emergence herbicidal activity. The following applies: Rate 500 g/ha; evaluated 20 days later; 100=total damage to plant, 0=no damage to plant. The protocol:
as §1

The test system of test [9] is Lolium perenne (LOLPE). Briefly: Test Example 1, pre-emergence herbicidal activity. The note with it: Rate 500 g/ha; evaluated 20 days later; 100=total damage to plant, 0=no damage to plant. Here is the method:
as §1

Test [10] relates to Avena fatua (AVEFA). Nature of the test: Test Example 1, pre-emergence herbicidal activity. The following applies: Rate 500 g/ha; evaluated 20 days later; 100=total damage to plant, 0=no damage to plant. Here is the method: as §1
The test system of test [11] is Setaria faberi (SETFA). Briefly: Test Example 1, pre-emergence herbicidal activity. The following applies: Rate 500 g/ha; evaluated 20 days later; 100=total damage to plant, 0=no damage to plant. Here is the method: as §1
Test [12] deals with Alopecurus myosuroides (ALOMY). Briefly: Test Example 1, pre-emergence herbicidal activity. The following applies: Rate 500 g/ha; evaluated 20 days later; 100=total damage to plant, 0=no damage to plant. The protocol: as §1
In test [13] the test system is Amaranthus retroflexus (AMARE). Nature of the test: Test Example B, post-emergence herbicidal activity. The note with it: Rate 250 g/ha; evaluated after 13 days; 100=total damage to plant, 0=no damage to plant. Here is the method: (§2) Seeds of a variety of test species were sown in standard soil in pots. After cultivation for one day (pre-emergence) or after 8 days cultivation (post-emergence) under controlled conditions in a glasshouse (at 24/16° C., day/night; 14 hours light; 65% humidity), the plants were sprayed with an aqueous spray solution derived from the formulation of the technical active ingredient in acetone/water (50:50) solution containing 0.5% Tween 20 (polyoxyethelyene sorbitan monolaurate, CAS RN 9005-64-5). The test plants were then grown in a glasshouse under controlled conditions in a glasshouse (at 24/16° C., day/night; 14 hours light; 65% humidity) and watered twice daily. After 13 days for pre and post-emergence, the test was evaluated (100=total damage to plant; 0=no damage to plant). Alopecurus myosuroides (ALOMY), Avena fatua (AVEFA), Setaria faberi (SETFA), Echinochloa crus-galli (ECHCG), Solanum nigrum (SOLNI) and Amaranthus retroflexus (AMARE)

In test [14] the test system is Echinochloa crus-galli (ECHCG). Briefly: Test Example B, post-emergence herbicidal activity. The note with it: Rate 250 g/ha; evaluated after 13 days; 100=total damage to plant, 0=no damage to plant. The protocol:
as §2

The test system of test [15] is Avena fatua (AVEFA). Briefly: Test Example B, post-emergence herbicidal activity. The following applies: Rate 250 g/ha; evaluated after 13 days; 100=total damage to plant, 0=no damage to plant. Here is the method:
as §2

For test [16], the system named is Solanum nigrum (SOLNI). Briefly: Test Example B, post-emergence herbicidal activity. The note with it: Rate 250 g/ha; evaluated after 13 days; 100=total damage to plant, 0=no damage to plant. The protocol:
as §2

The subject of test [17] is Setaria faberi (SETFA). Briefly: Test Example B, post-emergence herbicidal activity. The following applies: Rate 250 g/ha; evaluated after 13 days; 100=total damage to plant, 0=no damage to plant. The protocol: as §2
Test [18] relates to Alopecurus myosuroides (ALOMY). Nature of the test: Test Example B, post-emergence herbicidal activity. The note with it: Rate 250 g/ha; evaluated after 13 days; 100=total damage to plant, 0=no damage to plant. Here is the method: as §2
In test [19] the test system is Amaranthus retroflexus (AMARE). Briefly: Test Example B, pre-emergence herbicidal activity. The following applies: Rate 250 g/ha; evaluated after 13 days; 100=total damage to plant, 0=no damage to plant. Here is the method:
as §2

Test [20] has as its system Echinochloa crus-galli (ECHCG). Nature of the test: Test Example B, pre-emergence herbicidal activity. The note with it: Rate 250 g/ha; evaluated after 13 days; 100=total damage to plant, 0=no damage to plant. Here is the method: as §2
Test [21] concerns Avena fatua (AVEFA). Nature of the test: Test Example B, pre-emergence herbicidal activity. The note with it: Rate 250 g/ha; evaluated after 13 days; 100=total damage to plant, 0=no damage to plant. Here is the method:
as §2

In test [22] the test system is Solanum nigrum (SOLNI). Briefly: Test Example B, pre-emergence herbicidal activity. The note with it: Rate 250 g/ha; evaluated after 13 days; 100=total damage to plant, 0=no damage to plant. Here is the method:
as §2

In test [23] the test system is Setaria faberi (SETFA). Nature of the test: Test Example B, pre-emergence herbicidal activity. The note with it: Rate 250 g/ha; evaluated after 13 days; 100=total damage to plant, 0=no damage to plant. The protocol: as §2
The test system of test [24] is Alopecurus myosuroides (ALOMY). Nature of the test: Test Example B, pre-emergence herbicidal activity. The note with it: Rate 250 g/ha; evaluated after 13 days; 100=total damage to plant, 0=no damage to plant. Here is the method: as §2

`CCc1ccc(-c2ccc(Cl)cc2Cl)cc1C1([N+](=O)[O-])C(=O)C(C)(C)OC(C)(C)C1=O` [Compound A1, 4-(2′,4′-dichloro-4-ethylbiphen-3-yl)-2,2,6,6-tetramethyl-4-nitropyran-3,5-dione]: in [1], the “Post-Emergence Activity DIGSA (damage to plant)” value was determined as 100. In addition, the “Post-Emergence Activity ECHCG (damage to plant)” value (“Post-Emergence Activity ECHCG” below) in test [2] was 100. Moreover, the “Post-Emergence Activity LOLPE (damage to plant)” value in the test on Lolium perenne (LOLPE) [3] came out at 100. The “Post-Emergence Activity AVEFA (damage to plant)” value (from here on “Post-Emergence Activity AVEFA”) in the test with Avena fatua (AVEFA) [4] is given as 70. The “Post-Emergence Activity SETFA (damage to plant)” value (shortened to “Post-Emergence Activity SETFA”) with Setaria faberi (SETFA) [5] stood at 100. Besides, in test [6], the “Post-Emergence Activity ALOMY (damage to plant)” value (“Post-Emergence Activity ALOMY” below) is listed as 60. Besides, the “Pre-Emergence Activity DIGSA (damage to plant)” value in [7] is 70. The “Pre-Emergence Activity ECHCG (damage to plant)” value (from here on “Pre-Emergence Activity ECHCG”) in test [8] stood at 20. Besides, in the test on Lolium perenne (LOLPE) [9], the “Pre-Emergence Activity LOLPE (damage to plant)” value was found to be 30. Besides, the “Pre-Emergence Activity AVEFA (damage to plant)” value (from here on “Pre-Emergence Activity AVEFA”) in the test on Avena fatua (AVEFA) [10] was 30. The “Pre-Emergence Activity SETFA (damage to plant)” value (from here on “Pre-Emergence Activity SETFA”) in the test on Setaria faberi (SETFA) [11] was 0. Also, the “Pre-Emergence Activity ALOMY (damage to plant)” value (from here on “Pre-Emergence Activity ALOMY”) in test [12] worked out at 20.

As to `CCc1ccc(-c2ccc(Cl)cc2Cl)cc1C1(Cl)C(=O)C(C)(C)OC(C)(C)C1=O` [Compound A2, 4-chloro-4-(2′,4′-dichloro-4-ethylbiphen-3-yl)-2,2,6,6-tetramethylpyran-3,5-dione], the “Post-Emergence Activity DIGSA (damage to plant)” value in test [1] came to 100. Also, the “Post-Emergence Activity ECHCG” value in test [2] came to 100. The “Post-Emergence Activity LOLPE (damage to plant)” value in the test on Lolium perenne (LOLPE) [3] is listed as 100. Moreover, the “Post-Emergence Activity AVEFA” value with Avena fatua (AVEFA) [4] came to 80. Moreover, the “Post-Emergence Activity SETFA” value with Setaria faberi (SETFA) [5] is 100. Moreover, the “Post-Emergence Activity ALOMY” value in test [6] was determined as 60. For the same compound, the “Pre-Emergence Activity DIGSA (damage to plant)” value in test [7] came out at 90. The “Pre-Emergence Activity ECHCG” value in test [8] was 90. Also, the “Pre-Emergence Activity LOLPE (damage to plant)” value in the test with Lolium perenne (LOLPE) [9] stood at 70. Moreover, the “Pre-Emergence Activity AVEFA” value in the test with Avena fatua (AVEFA) [10] came out at 50. In addition, in the test with Setaria faberi (SETFA) [11], the “Pre-Emergence Activity SETFA” value amounted to 90. For the same compound, the “Pre-Emergence Activity ALOMY” value in [12] is 0.

As to `Cc1ccc(-c2ccc(Cl)cc2)cc1C1(Cl)C(=O)COC(C)(C)C1=O` (stereo not drawn) [Compound A3, 4-chloro-4-(4′-chloro-4-methylbiphenyl-3-yl)-2,2-dimethylpyran-3,5-dione], in test [13], the “Post-Emergence Activity AMARE (damage to plant)” value worked out at 0. The “Post-Emergence Activity ECHCG” value in [14] was 80. Further, the “Post-Emergence Activity AVEFA” value with Avena fatua (AVEFA) [15] stood at 0. The “Post-Emergence Activity SOLNI (damage to plant)” value with Solanum nigrum (SOLNI) [16] worked out at 0. In addition, in the test on Setaria faberi (SETFA) [17], the “Post-Emergence Activity SETFA” value is reported as 80. In addition, in test [18], the “Post-Emergence Activity ALOMY” value worked out at 0. For the same compound, in test [19], the “Pre-Emergence Activity AMARE (damage to plant)” value came to 0. The “Pre-Emergence Activity ECHCG” value in [20] was 50. Further, in the test with Avena fatua (AVEFA) [21], the “Pre-Emergence Activity AVEFA” value amounted to 0. For the same compound, the “Pre-Emergence Activity SOLNI (damage to plant)” value with Solanum nigrum (SOLNI) [22] amounted to 0. Also, in the test with Setaria faberi (SETFA) [23], the “Pre-Emergence Activity SETFA” value is on record as 0. Moreover, the “Pre-Emergence Activity ALOMY” value in test [24] came out at 0.

Consider `Cc1ccc(-c2ccc(Cl)cc2)cc1C1(Cl)C(=O)C(C)(C)OC(C)(C)C1=O` [Compound A4, 4-Chloro-4-(4′-chloro-4-methylbiphenyl-3-yl)-2,2,6,6-tetramethyl-pyran-3,5-dione], for which, in test [13], the “Post-Emergence Activity AMARE (damage to plant)” value is given as 0. In addition, in [14], the “Post-Emergence Activity ECHCG” value is on record as 100. The “Post-Emergence Activity AVEFA” value in the test with Avena fatua (AVEFA) [15] came out at 90. In the test with Solanum nigrum (SOLNI) [16], the “Post-Emergence Activity SOLNI (damage to plant)” value stood at 0. Also, the “Post-Emergence Activity SETFA” value with Setaria faberi (SETFA) [17] was 100. The “Post-Emergence Activity ALOMY” value in [18] is 100. For the same compound, the “Pre-Emergence Activity AMARE (damage to plant)” value in [19] is recorded as 0. Moreover, the “Pre-Emergence Activity ECHCG” value in [20] amounted to 100. Also, the “Pre-Emergence Activity AVEFA” value in the test on Avena fatua (AVEFA) [21] came to 70. For the same compound, the “Pre-Emergence Activity SOLNI (damage to plant)” value with Solanum nigrum (SOLNI) [22] was 0. The “Pre-Emergence Activity SETFA” value in the test with Setaria faberi (SETFA) [23] was determined as 100. In test [24], the “Pre-Emergence Activity ALOMY” value came out at 30.

The record behind these values is patent publication US8623907B2, “Herbicides” (Syngenta Participations, AG, priority 2008, dated 2014).
